Measurements reported in patent publication US20230142366A1, “NOVEL POLYMORPHIC FORMS OF METOPIMAZINE” (Neurogastrx, Inc., priority 2020, published 2023).
Structures can show the parent of a compound that is named as a salt. Marks after values point to notes of the source that are not given here.

What was measured:
[1] = before and after a high fat breakfast; cited from earlier work
[2] = Clinical comparative pharmacokinetic study, 3-period cross-over, single oral doses, plasma samples; format: in vivo, human
Description: A clinical comparative pharmacokinetic study was performed to understand the pharmacokinetic profile of metopimazine mesylate Crystal Form A in comparison to the free base of metopimazine. This study was as a 3-period, cross-over design with 3 administrations of single doses: oral formulation of metopimazine mesylate Crystal Form A fasting, oral formulation of metopimazine mesylate Crystal Form A after a high-fat breakfast, and oral formulation of metopimazine free base fasting, with a wash-out period of 48 hours between each administration. Fifteen subjects were enrolled and received each of the 3 treatment. Plasma samples from each subject were analyzed for various pharmacokinetic parameters. Mixed model repeated measures (MMRM) analysis was performed on each sample.
The second objective of this study was to compare the pharmacokinetics of metopimazine mesylate Crystal Form A administered as an oral administration of a single dose of 15 mg orally in 15 human subjects either in a fasted state or after a high fat breakfast. Plasma samples from each subject were analyzed for various pharmacokinetic parameters. […] Both Cmax and AUC are well within the 90% confidence interval.

[3] = 15 mg single oral dose, n = 15, fasted
[4] = 90% confidence interval of ratio fasted vs fed
[5] = 90% confidence interval of ratio fasted vs fed, marked bioequivalence
[6] = single dose of 15 mg orally, 15 human subjects

SMILES | Reduction in AUC (food effect) [1] | Reduction in Cmax (food effect) [1] | Tmax CV % [2, 3] | Tmax Max [2, 3] | Tmax Median [2, 3] | Tmax Min [2, 3] | Tmax Mean ([2]; 15 mg single oral dose, n = 15, fasted, plasma) | Variance of Tmax values compared with metopimazine free base ([2]; 15 mg oral, fasted, MMRM analysis) | Change in AUC when administered with food ([2]; 15 mg oral, fed vs fasted) | Reduction in Cmax when administered with food ([2]; 15 mg oral, fed vs fasted) | AUC0-inf GLSM Ratio fasted vs fed (%) ([2]; 15 mg, n = 15) | Cmax GLSM Ratio fasted vs fed (%) ([2]; 15 mg, n = 15) | Cmax ratio Lower CI % [2, 4] | Cmax ratio Upper CI % [2, 4] | AUC0-inf ratio Lower CI % [2, 5] | AUC0-inf ratio Upper CI % [2, 5] | Geometric mean difference in AUC, high fat breakfast vs fasted [2, 6] | Geometric mean difference in Cmax, high fat breakfast vs fasted [2, 6]
CS(=O)(=O)c1ccc2c(c1)N(CCCN1CCC(C(N)=O)CC1)c1ccccc1S2 [Metopimazine free base, 1-(3-(2-(methylsulfonyl)-10H-phenothiazin-10-yl)propyl)piperidine-4-carboxamide, reference compound] | 23% | 58% | 77.33% | 4.00 h | 1.00 h | 0.50 h | 1.27 h |  |  |  |  |  |  |  |  |  |  | 
CS(=O)(=O)c1ccc2c(c1)N(CCCN1CCC(C(N)=O)CC1)c1ccccc1S2 [Metopimazine mesylate Crystal Form A, 1-(3-(2-(methylsulfonyl)-10H-phenothiazin-10-yl)propyl)piperidine-4-carboxamide methanesulfonic acid] |  |  | 34.25% | 1.50 h |  | 0.50 h |  | statistically significantly lower variance | no notable change in AUC | approximately 15% | 93.63% | 84.07% | 63.82% | 110.75% | 86.00* % | 101.93* % | not statistical difference | slightly but significantly lower
